In test [1] the target is Beta Secretase enzyme (BACE) (Homo sapiens, UniProt P56817). The experiment in a line: In vitro enzymatic BACE FRET assay. Particulars: average IC50; read-out: BACE1 FRET assay IC50. It is filed as biochemical. In short, it runs like this: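 Enzyme (0.2 nM) pre-incubated 1 h with serially diluted inhibitors in 0.05 M acetate pH 4.2, 10% DMSO, 100 uM genapol. Reaction started with 50 nM fluorophore/quencher peptide FRET substrate, run 1 h, stopped with Tris to neutral pH. Fluorescence read at excitation 488 nm, […].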

Another test addresses Cathepsin D (Cat D) (Homo sapiens, UniProt P07339). The experiment in a line: In vitro enzymatic Cathepsin D (Cat D) FRET assay. It is filed as biochemical. Particulars: read-out: CatD IC50. In short, it runs like this: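 Recombinant CHO-expressed enzyme (9 nM) pre-incubated 1 h with serially diluted inhibitor in 0.05 M citrate pH 3.5, 10% DMSO final, 5 mM CHAPS. Reaction started with 20 nM FRET peptide substrate, run 1 h, stopped with Tris to neutral pH; fluorescence read at ex 500/em 580 nm.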

Test [2] concerns Aβ 40 in conditioned medium of cells stably expressing Amyloid Precursor Protein (APP). As to the kind of experiment: In vitro BACE cell-based assay (Aβ 40 sandwich ELISA). Particulars: Homo sapiens, HEK293; HEK cells; average IC50. In short, it runs like this: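 APP-expressing cells, 24 h pre-culture in DMEM/10% FBS, treated 24 h with 10-point compound dilutions from 100 or 10 μM top, 0.1% DMSO final. Secreted Aβ40 quantified by sandwich ELISA (pAb40 capture, biotinylated 6E10 detection, europium TRF); IC50 from percent inhibition versus concentration.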

pIC50: −log10 of the molar value.

Sequence of Cathepsin D (Cat D) (P07339 65-412, species assumed): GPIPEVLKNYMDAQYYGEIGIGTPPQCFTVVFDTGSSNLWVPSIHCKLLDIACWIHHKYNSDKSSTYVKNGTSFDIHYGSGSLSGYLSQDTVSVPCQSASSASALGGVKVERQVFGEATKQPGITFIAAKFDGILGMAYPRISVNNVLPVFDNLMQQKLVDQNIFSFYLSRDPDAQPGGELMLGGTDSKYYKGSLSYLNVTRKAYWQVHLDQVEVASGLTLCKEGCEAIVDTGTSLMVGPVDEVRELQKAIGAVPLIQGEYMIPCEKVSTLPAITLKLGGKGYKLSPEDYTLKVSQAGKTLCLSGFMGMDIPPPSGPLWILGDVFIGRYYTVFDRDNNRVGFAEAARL
Sequence of Beta Secretase enzyme (BACE) (P56817 46-501): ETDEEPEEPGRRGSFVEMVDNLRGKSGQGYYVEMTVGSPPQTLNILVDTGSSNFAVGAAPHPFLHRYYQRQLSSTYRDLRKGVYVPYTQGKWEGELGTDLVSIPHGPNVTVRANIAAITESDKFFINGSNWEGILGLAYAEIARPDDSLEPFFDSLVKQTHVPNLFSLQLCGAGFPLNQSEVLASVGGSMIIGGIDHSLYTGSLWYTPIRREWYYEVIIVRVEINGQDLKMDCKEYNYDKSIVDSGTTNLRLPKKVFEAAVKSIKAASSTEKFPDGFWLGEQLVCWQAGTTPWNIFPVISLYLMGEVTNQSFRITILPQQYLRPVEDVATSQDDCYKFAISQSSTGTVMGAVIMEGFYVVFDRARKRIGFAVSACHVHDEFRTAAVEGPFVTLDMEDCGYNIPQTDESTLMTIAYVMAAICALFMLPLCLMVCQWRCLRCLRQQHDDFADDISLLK

Regarding `Cc1cc(C(F)F)cnc1C(=O)Nc1ccc2c(c1)[C@@]1(C)N=C(N)C(C)(C)S(=O)(=O)[C@@H]1CCO2` [Example 163, N-((4aR,11bR)-2-amino-3,3,11b-trimethyl-4,4-dioxido-4a,5,6,11b-tetrahydro-3H-[1]benzoxepino[4,5-b][1,4]thiazin-10-yl)-5-(difluoromethyl)-3-methyl-2-pyridinecarboxamide], the pIC50 in test [1] is 8.30; at Cathepsin D (Cat D) it was below 3.40; in test [2], 8.52.

As for `CC1(C)C(N)=N[C@]2(C)c3cc(NC(=O)c4cnc(C(F)(F)F)cn4)ccc3OCC[C@H]2S1(=O)=O` [Example 164, N-((4aR,11bR)-2-amino-3,3,11b-trimethyl-4,4-dioxido-4a,5,6,11b-tetrahydro-3H-[1]benzoxepino[4,5-b][1,4]thiazin-10-yl)-5-(trifluoromethyl)-2-pyrazinecarboxamide], the pIC50 is 7.55 in test [1], 2.80 on Cathepsin D (Cat D) and 7.77 in test [2].

On to `CC1(C)C(N)=N[C@]2(C)c3cc(NC(=O)c4ccc(C(F)(F)F)cn4)ccc3OCC[C@H]2S1(=O)=O` [Example 165, N-((4aR,11bR)-2-amino-3,3,11b-trimethyl-4,4-dioxido-4a,5,6,11b-tetrahydro-3H-[1]benzoxepino[4,5-b][1,4]thiazin-10-yl)-5-(trifluoromethyl)-2-pyridinecarboxamide], for which the results for the pIC50 (in test [1]; at Cathepsin D (Cat D); in test [2]) were 8.22, 2.97 and 8.40, respectively.

For `COc1cnc(C(=O)Nc2ccc3c(c2)[C@@]2(C)N=C(N)C(C)(C)S(=O)(=O)[C@@H]2CCO3)cn1` [Example 166, N-((4aR,11bR)-2-amino-3,3,11b-trimethyl-4,4-dioxido-4a,5,6,11b-tetrahydro-3H-[1]benzoxepino[4,5-b][1,4]thiazin-10-yl)-5-methoxy-2-pyrazinecarboxamide], the negative-log IC50 (pIC50) in test [1] is 7.77; at Cathepsin D (Cat D), 2.95; in test [2], 8.13.

With `CC1(C)C(N)=N[C@]2(C)c3cc(Nc4ncnc5cc(OCC6CC6)cnc45)ccc3OCC[C@H]2S1(=O)=O` [Example 167, (4aR,11bR)-N1^~10^~-(7-(cyclopropylmethoxy)pyrido[3,2-d]pyrimidin-4-yl)-3,3,11b-trimethyl-4a,5,6,11b-tetrahydro-3H-[1]benzoxepino[4,5-b][1,4]thiazine-2,10-diamine 4,4-dioxide], the pIC50 in test [1] is 8.10; at Cathepsin D (Cat D), 3.42; in test [2], 7.54.

Consider `CC1(C)C(N)=N[C@]2(C)c3cc(Nc4nccc5cc(C#N)cnc45)ccc3OCC[C@H]2S1(=O)=O` [Example 168, 8-(((4aR,11bR)-2-amino-3,3,11b-trimethyl-4,4-dioxido-4a,5,6,11b-tetrahydro-3H-[1]benzoxepino[4,5-b][1,4]thiazin-10-yl)amino)-1,7-naphthyridine-3-carbonitrile], for which the pIC50 is 8.70 in test [1], below 4.35 on Cathepsin D (Cat D) and 8.52 in test [2].

Regarding `CC1(C)C(N)=N[C@]2(C)c3cc(NC(=O)c4cnc(OCC(F)(F)F)cn4)ccc3OCC[C@H]2S1(=O)=O` [Example 169, N-((4aR,11bR)-2-amino-3,3,11b-trimethyl-4,4-dioxido-4a,5,6,11b-tetrahydro-3H-[1]benzoxepino[4,5-b][1,4]thiazin-10-yl)-5-(2,2,2-trifluoroethoxy)-2-pyrazinecarboxamide], the pIC50 is 9.00 in test [1], 2.79 on Cathepsin D (Cat D) and 8.40 in test [2].

Consider `Cc1cc(OCC2CC2)cnc1C(=O)Nc1ccc2c(c1)[C@@]1(C)N=C(N)C(C)(C)S(=O)(=O)[C@@H]1CCO2` [Example 170, N-((4aR,11bR)-2-amino-3,3,11b-trimethyl-4,4-dioxido-4a,5,6,11b-tetrahydro-3H-[1]benzoxepino[4,5-b][1,4]thiazin-10-yl)-5-(cyclopropylmethoxy)-3-methyl-2-pyridinecarboxamide], for which the pIC50 in test [1] was 7.85; at Cathepsin D (Cat D), 2.69; in test [2], 7.59.

As to `CC1(C)C(N)=N[C@]2(C)c3cc(Nc4ncc(F)c5cc(C#N)cnc45)ccc3OCC[C@H]2S1(=O)=O` [Example 171, 8-(((4aR,11bR)-2-amino-3,3,11b-trimethyl-4,4-dioxido-4a,5,6,11b-tetrahydro-3H-[1]benzoxepino[4,5-b][1,4]thiazin-10-yl)amino)-5-fluoro-1,7-naphthyridine-3-carbonitrile], the values for the pIC50 (in test [1]; at Cathepsin D (Cat D); in test [2]) were 8.52, below 4.83 and 8.00, respectively.

Consider `CC1(C)C(N)=N[C@]2(C)c3cc(NC(=O)c4ncc(C(F)F)cc4Cl)ccc3OCC[C@H]2S1(=O)=O` [Example 172, N-((4aR,11bR)-2-amino-3,3,11b-trimethyl-4,4-dioxido-4a,5,6,11b-tetrahydro-3H-[1]benzoxepino[4,5-b][1,4]thiazin-10-yl)-3-chloro-5-(difluoromethyl)-2-pyridinecarboxamide], for which the pIC50 in test [1] was 7.92; on Cathepsin D (Cat D), below 3.40; in test [2], 8.40.

`COc1cnc(C(=O)Nc2ccc3c(c2)[C@@]2(C)N=C(N)C(C)(C)S(=O)(=O)[C@@H]2CCO3)c(Cl)c1` [Example 173, N-((4aR,11bR)-2-amino-3,3,11b-trimethyl-4,4-dioxido-4a,5,6,11b-tetrahydro-3H-[1]benzoxepino[4,5-b][1,4]thiazin-10-yl)-3-chloro-5-methoxy-2-pyridinecarboxamide]: the pIC50 in test [1] was 8.30; on Cathepsin D (Cat D), below 3.40; in test [2], 8.15.

Take `CC1(C)C(N)=N[C@]2(C)c3cc(NC(=O)c4ncc(C#N)cc4Cl)ccc3OCC[C@H]2S1(=O)=O` [Example 174, N-((4aR,11bR)-2-amino-3,3,11b-trimethyl-4,4-dioxido-4a,5,6,11b-tetrahydro-3H-[1]benzoxepino[4,5-b][1,4]thiazin-10-yl)-3-chloro-5-cyano-2-pyridinecarboxamide]: the pIC50 in test [1] is 8.70; at Cathepsin D (Cat D), 2.97; in test [2], 8.70.

Consider `CC1(C)C(N)=N[C@]2(C)c3cc(NC(=O)c4ccc(OCC5CC5)cn4)ccc3OCC[C@H]2S1(=O)=O` [Example 175, N-((4aR,11bR)-2-amino-3,3,11b-trimethyl-4,4-dioxido-4a,5,6,11b-tetrahydro-3H-[1]benzoxepino[4,5-b][1,4]thiazin-10-yl)-5-(cyclopropylmethoxy)-2-pyridinecarboxamide], for which the negative-log IC50 (pIC50) in test [1] was 8.05; on Cathepsin D (Cat D) it was 2.82; in test [2] it was 7.77.

Regarding `CC1(C)C(N)=N[C@]2(C)c3cc(Nc4ncnc5cc(Cl)cnc45)ccc3OCC[C@H]2S1(=O)=O` [Example 176, (4aR,11bR)-N^~10^~-(7-chloropyrido[3,2-d]yrimidin-4-yl)-3,3,11b-trimethyl-4a,5,6,11b-tetrahydro-3H-[1]benzoxepino[4,5-b][1,4]thiazine-2,10-diamine 4,4-dioxide], the pIC50 in test [1] is 8.10; at Cathepsin D (Cat D) it was 3.73; in test [2], 7.96.

As for `COc1cnc2c(Nc3ccc4c(c3)[C@@]3(C)N=C(N)C(C)(C)S(=O)(=O)[C@@H]3CCO4)ncc(F)c2c1` [Example 177, (4aR,11bR)-N^~10^~-(5-fluoro-3-methoxy-1,7-naphthyridin-8-yl)-3,3,11b-trimethyl-4a,5,6,11b-tetrahydro-3H-[1]benzoxepino[4,5-b][1,4]thiazine-2,10-diamine 4,4-dioxide], the results for the pIC50 (in test [1]; at Cathepsin D (Cat D); in test [2]) were 7.74, 3.50 and 6.95, respectively.

For the compound `Cc1nc(OCC2CC2)cnc1C(=O)Nc1ccc2c(c1)[C@@]1(C)N=C(N)C(C)(C)S(=O)(=O)[C@@H]1CCO2` [Example 178, N-((4aR,11bR)-2-amino-3,3,11b-trimethyl-4,4-dioxido-4a,5,6,11b-tetrahydro-3H-benzo[6,7]oxepino[4,5-b][1,4]thiazin-10-yl)-5-(cyclopropylmethoxy)-3-methylpyrazine-2-carboxamide], the pIC50 in test [1] is 8.00; on Cathepsin D (Cat D), 3.23; in test [2], 7.55.

`CC1(C)C(N)=N[C@]2(C)c3cc(NC(=O)c4ccc(C5CC5)cn4)ccc3OCC[C@H]2S1(=O)=O` [Example 179, N-((4aR,11bR)-2-amino-3,3,11b-trimethyl-4,4-dioxido-4a,5,6,11b-tetrahydro-3H-[1]benzoxepino[4,5-b][1,4]thiazin-10-yl)-5-cyclopropyl-2-pyridinecarboxamide]: the pIC50 in test [1] was 7.18; on Cathepsin D (Cat D), 3.15; in test [2], 7.46.

With `Cc1cc(Cl)cnc1C(=O)Nc1ccc2c(c1)[C@@]1(C)N=C(N)C(C)(C)S(=O)(=O)[C@@H]1C[C@@H](C)O2` [Example 180, N-((4aR,6R,11bR)-2-amino-3,3,6,11b-tetramethyl-4,4-dioxido-4a,5,6,11b-tetrahydro-3H-[1]benzoxepino[4,5-b][1,4]thiazin-10-yl)-5-chloro-3-methyl-2-pyridinecarboxamide], the pIC50 was 8.52 in test [1], 4.04 at Cathepsin D (Cat D) and 8.30 in test [2].

The values are drawn from US9309263B2, “Fused multi-cyclic sulfone compounds as inhibitors of beta-secretase and methods of use thereof” (AMGEN INC., priority 2013, dated 2016).
